Among the data in patent publication US20230391772A1, “METHODS AND COMPOSITIONS FOR TARGETED PROTEIN DEGRADATION” (Ranok Therapeutics (Hangzhou) Co. Ltd., priority 2020, published 2023) are EC50 and IC50 values, retold here.

Assay [1] has as its system NCI-H358 human non-small cell lung cancer. As to the kind of experiment: NCI-H358 CCK-8 proliferation assay. The assay is classed as cell-based. The settings on record: NCI-H358 cells, 72 hr. The method, boiled down:
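Compounds were tested as a 3-fold series from 20 μM down to 1.02 nM in CCK-8 absorbance assays. The lines used were NCI-H23 and NCI-H358, each with 1 KRAS(G12C) copy, and MIA PaCa-2 with 2 copies. Inhibition was derived relative to DMSO controls, with a no-cell blank subtracted.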

Assay [2] has as its target T1, HSP90a protein (Homo sapiens, UniProt P07900).
T1 construct: purchased BPS Bioscience 50298
As to the kind of experiment: HSP90α-binding fluorescent polarization (FP) assay, BODIPY-labeled RNK04010 probe. The note with it: FP competition with RNK04010 (BODIPY-labeled), 5 nM, 300 min at 25° C. The essentials:
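Competitive FP with N-terminal HSP90a; probe at 5 nM final, either BODIPY-labeled triazolone RNK04010 or FITC-geldanamycin. Test compounds as 2.5-fold dilutions from 20 μM to 5.2 nM. Incubated at 25 °C for 300 min (RNK04010) or 120 min (FITC-geldanamycin) before reading polarization.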

Consider `CCC(=O)N1CCN(c2nc(NCCC(=O)NCCOCCOc3ccc(-n4c(O)nnc4-c4cc(C(C)C)c(O)cc4O)cc3)nc3c2CCN(c2cc(O)cc4ccccc24)C3)CC1` [Compound 73, N-(2-(2-(4-(3-(2,4-dihydroxy-5-isopropylphenyl)-5-hydroxy-4H-1,2,4-triazol-4-yl)phenoxy)ethoxy)ethyl)-3-((7-(3-hydroxynaphthalen-1-yl)-4-(4-propionylpiperazin-1-yl)-5,6,7,8-tetrahydropyrido[3,4-d]pyrimidin-2-yl)amino)propanamide, trifluoroacetic acid], for which the EC50 in assay [1] is greater than 1 µM. In assay [2], the IC50 was 0.1 to 1 µM.
For `CCC(=O)N1CCN(c2nc(NCCC(=O)NCCc3ccc(-n4c(O)nnc4-c4cc(C(C)C)c(O)cc4O)cc3)nc3c2CCN(c2cc(O)cc4ccccc24)C3)CC1` [Compound 74, N-(4-(3-(2,4-dihydroxy-5-isopropylphenyl)-5-hydroxy-4H-1,2,4-triazol-4-yl)phenethyl)-3-((7-(3-hydroxynaphthalen-1-yl)-4-(4-propionylpiperazin-1-yl)-5,6,7,8-tetrahydropyrido[3,4-d]pyrimidin-2-yl)amino)propanamide, trifluoroacetic acid], in that order: greater than 1 µM and 0.1 to 1 µM.
In the same order, the values of `C=CC(=O)N1CCN(c2nc(NCCC(=O)N3CCC(CN4CCN(Cc5ccc(-n6c(C(=O)NCC(F)(F)F)nnc6-c6cc(C)c(O)cc6O)cc5)CC4)CC3)nc3c2CCN(c2cccc4ccccc24)C3)C[C@H]1CC#N` [Compound 77, (R)-4-(4-((4-((1-(3-((4-(4-acryloyl-3-(cyanomethyl)piperazin-1-yl)-7-(naphthalen-1-yl)-5,6,7,8-tetrahydropyrido[3,4-d]pyrimidin-2-yl)amino)propanoyl)piperidin-4-yl)methyl)piperazin-1-yl)methyl)phenyl)-5-(2,4-dihydroxy-5-methylphenyl)-N-(2,2,2-trifluoroethyl)-4H-1,2,4-triazole-3-carboxamide, trifluoroacetic acid] are 0.1 to 1 µM and 0.1 to 1 µM.
In assay [1], `C=CC(=O)N1CCN(c2nc(NCCC(=O)NCc3ccc(-n4c(O)nnc4-c4ccc(O)cc4O)cc3)nc3c2CCN(c2cccc4ccccc24)C3)C[C@H]1CC#N` [Compound 81] gave an EC50 greater than 1 µM. The IC50 in assay [2] was greater than 1 µM.
`C=CC(=O)N1CCN(c2nc(NCCC(=O)NCc3ccc(-n4c(O)nnc4-c4cc(C(C)C)c(O)cc4O)cc3C(F)(F)F)nc3c2CCN(c2cccc4ccccc24)C3)C[C@H]1CC#N` [Compound 82, (R)-3-((4-(4-acryloyl-3-(cyanomethyl)piperazin-1-yl)-7-(naphthalen-1-yl)-5,6,7,8-tetrahydropyrido[3,4-d]pyrimidin-2-yl)amino)-N-(4-(3-(2,4-dihydroxy-5-isopropylphenyl)-5-hydroxy-4H-1,2,4-triazol-4-yl)-2-(trifluoromethyl)benzyl)propanamide, trifluoroacetic acid] displayed an EC50 in assay [1] greater than 1 µM. The same molecule returned a concentration for half-maximal inhibition (IC50) in assay [2] of 0.1 to 1 µM.
For `C=CC(=O)N1CCN(c2nc(NCCC(=O)NCc3ccc(-n4c(O)nnc4-c4cc(CC)c(O)cc4O)cc3F)nc3c2CCN(c2cccc4cccc(Cl)c24)C3)C[C@H]1CC#N` [Compound 83, (R)-3-((4-(4-acryloyl-3-(cyanomethyl)piperazin-1-yl)-7-(8-chloronaphthalen-1-yl)-5,6,7,8-tetrahydropyrido[3,4-d]pyrimidin-2-yl)amino)-N-(4-(3-(5-ethyl-2,4-dihydroxyphenyl)-5-hydroxy-4H-1,2,4-triazol-4-yl)-2-fluorobenzyl)propanamide, trifluoroacetic acid], in that order: greater than 1 µM and greater than 1 µM.
Regarding `C=CC(=O)N1CCN(c2nc(NCCC(=O)N3CCC(Cc4ccc(-n5c(O)nnc5-c5cc(C(C)C)c(O)cc5O)cc4)CC3)nc3c2CCN(c2cccc4ccccc24)C3)C[C@H]1CC#N` [Compound 84, (R)-2-(1-acryloyl-4-(2-((3-(4-(4-(3-(2,4-dihydroxy-5-isopropylphenyl)-5-hydroxy-4H-1,2,4-triazol-4-yl)benzyl)piperidin-1-yl)-3-oxopropyl)amino)-7-(naphthalen-1-yl)-5,6,7,8-tetrahydropyrido[3,4-d]pyrimidin-4-yl)piperazin-2-yl)acetonitrile, trifluoroacetic acid], the EC50 in assay [1] lay in the range of 0.1 to 1 µM. Moreover, the IC50 in assay [2] lay within 0.1 to 1 µM.
For the molecule `C=CC(=O)N1CCN(c2nc(NCCC(=O)NCCc3ccc(-n4c(O)nnc4-c4cc(C(C)C)c(O)cc4O)cc3)nc3c2CCN(c2cccc4ccccc24)C3)C[C@H]1CC#N` [Compound 85, (R)-3-((4-(4-acryloyl-3-(cyanomethyl)piperazin-1-yl)-7-(naphthalen-1-yl)-5,6,7,8-tetrahydropyrido[3,4-d]pyrimidin-2-yl)amino)-N-(4-(3-(2,4-dihydroxy-5-isopropylphenyl)-5-hydroxy-4H-1,2,4-triazol-4-yl)phenethyl)propanamide, trifluoroacetic acid], in assay [1], the EC50 was greater than 1 µM. For the same molecule, the IC50 in assay [2] was in the range of 0.1 to 1 µM.
Regarding `C=CC(=O)N1CCN(c2nc(NCCC(=O)N3CCN(Cc4ccc5c(c4)CN(C(=O)c4ccc(O)cc4O)C5)CC3)nc3c2CCN(c2cc(O)cc4ccccc24)C3)CC1` [Compound 86, 1-(4-(2-((3-(4-((2-(2,4-dihydroxybenzoyl)isoindolin-5-yl)methyl)piperazin-1-yl)-3-oxopropyl)amino)-7-(3-hydroxynaphthalen-1-yl)-5,6,7,8-tetrahydropyrido[3,4-d]pyrimidin-4-yl)piperazin-1-yl)prop-2-en-1-one, trifluoroacetic acid], the EC50 in assay [1] was greater than 1 µM. Moreover, the IC50 in assay [2] is greater than 1 µM.
In assay [1], `C=CC(=O)N1CCN(c2nc(NCCC(=O)N3CCN(c4ccc(-n5c(O)nnc5-c5cc(C(C)C)c(O)cc5O)cc4)CC3)nc3c2CCN(c2cccc4cccc(Cl)c24)C3)C[C@H]1CC#N` [Compound 88, (R)-2-(1-acryloyl-4-(7-(8-chloronaphthalen-1-yl)-2-((3-(4-(4-(3-(2,4-dihydroxy-5-isopropylphenyl)-5-hydroxy-4H-1,2,4-triazol-4-yl)phenyl)piperazin-1-yl)-3-oxopropyl)amino)-5,6,7,8-tetrahydropyrido[3,4-d]pyrimidin-4-yl)piperazin-2-yl)acetonitrile, trifluoroacetic acid] came in with a 50% effective concentration (EC50) greater than 1 µM. This molecule returned an IC50 in assay [2] of 0.1 to 1 µM.
The molecule `C=CC(=O)N1CCN(c2nc(NCCC(=O)NCc3ccc(-n4c(O)nnc4-c4cc(CCC)c(O)cc4O)cc3)nc3c2CCN(c2cccc4cccc(Cl)c24)C3)C[C@H]1CC#N` [Compound 89, (R)-3-((4-(4-acryloyl-3-(cyanomethyl)piperazin-1-yl)-7-(8-chloronaphthalen-1-yl)-5,6,7,8-tetrahydropyrido[3,4-d]pyrimidin-2-yl)amino)-N-(4-(3-(2,4-dihydroxy-5-propylphenyl)-5-hydroxy-4H-1,2,4-triazol-4-yl)benzyl)propenamide] gave an EC50 in assay [1] greater than 1 µM. In addition, the IC50 in assay [2] was greater than 1 µM.
Turning to `C=CC(=O)N1CCN(c2nc(NCCC(=O)N3CCN(c4ccc(-n5c(O)nnc5-c5cc(C(C)C)c(O)cc5O)cc4)CC3)nc3c2CCN(c2cccc4ccccc24)C3)C[C@H]1CC#N` [Compound 90, (R)-2-(1-acryloyl-4-(2-((3-(4-(4-(3-(2,4-dihydroxy-5-isopropylphenyl)-5-hydroxy-4H-1,2,4-triazol-4-yl)phenyl)piperazin-1-yl)-3-oxopropyl)amino)-7-(naphthalen-1-yl)-5,6,7,8-tetrahydropyrido[3,4-d]pyrimidin-4-yl)piperazin-2-yl)acetonitrile, trifluoroacetic acid], in assay [1], the EC50 is greater than 1 µM. The molecule also displayed an IC50 in assay [2] of 0.1 to 1 µM.
In the same order, the values of `C=CC(=O)N1CCN(c2nc(NCCC(=O)NCc3ccc(-n4c(O)nnc4-c4cc(C(C)C)c(O)cc4O)cc3)nc3c2CCN(c2cccc4ccccc24)C3)C[C@H]1CC#N` [Compound 91, (R)-3-((4-(4-acryloyl-3-(cyanomethyl)piperazin-1-yl)-7-(naphthalen-1-yl)-5,6,7,8-tetrahydropyrido[3,4-d]pyrimidin-2-yl)amino)-N-(4-(3-(2,4-dihydroxy-5-isopropylphenyl)-5-hydroxy-4H-1,2,4-triazol-4-yl)benzyl)propanamide, trifluoroacetic acid] are greater than 1 µM and greater than 1 µM.
In the same order, the values of `C=CC(=O)N1CCN(c2nc(NCCC(=O)NCCOCCOCCOc3ccc(-n4c(O)nnc4-c4cc(C(C)C)c(O)cc4O)cc3)nc3c2CCN(c2cccc4ccccc24)C3)C[C@@H]1CC#N` [Compound 92, (S)-3-((4-(4-acryloyl-3-(cyanomethyl)piperazin-1-yl)-7-(naphthalen-1-yl)-5,6,7,8-tetrahydropyrido[3,4-d]pyrimidin-2-yl)amino)-N-(2-(2-(2-(4-(3-(2,4-dihydroxy-5-isopropylphenyl)-5-hydroxy-4H-1,2,4-triazol-4-yl)phenoxy)ethoxy)ethoxy)ethyl)propanamide, trifluoroacetic acid] are greater than 1 µM and less than 0.1 µM.
In assay [1], `C=CC(=O)N1CCN(c2nc(NCCC(=O)NCCOCCOCCOc3ccc(-n4c(O)nnc4-c4cc(C(C)C)c(O)cc4O)cc3)nc3c2CCN(c2cccc4cccc(Cl)c24)C3)C[C@@H]1CC#N` [Compound 93, (S)-3-((4-(4-acryloyl-3-(cyanomethyl)piperazin-1-yl)-7-(8-chloronaphthalen-1-yl)-5,6,7,8-tetrahydropyrido[3,4-d]pyrimidin-2-yl)amino)-N-(2-(2-(2-(4-(3-(2,4-dihydroxy-5-isopropylphenyl)-5-hydroxy-4H-1,2,4-triazol-4-yl)phenoxy)ethoxy)ethoxy)ethyl)propanamide, trifluoroacetic acid] yielded an EC50 greater than 1 µM. Besides, in assay [2], the IC50 is 0.1 to 1 µM.
